According to article PMC6389909, “Isothermal Analysis of ThermoFluor Data can readily provide Quantitative Binding Affinities” (Scientific Reports, 2019):

What was measured:
[1] = target: MBP; conditions: read-out: Kd reported in previous studies; cited from earlier work
[2] = target: T1, h-CA I (Homo sapiens, UniProt P00915); test: Esterase activity assay (4-nitrophenyl acetate), h-CA I; assay type: biochemical; design: purchased Sigma C4396; conditions: h-CA I 2 µM; 57 °C; noncompetitive inhibition fit; read-out: Ki (µM), from enzyme assay
Experimental: Carbonic anhydrase activity (h-CA I and b-CA II) was measured using a spectrophotometer (Molecular Devices, SpectraMax® i3x) as described elsewhere[73]. h-CA I was used at a final concentration of 2 µM and b-CA II was used at a final concentration of 0.5 µM in the buffer: 100 mM NaCl, 20 mM TRIS, pH 6.1, 1% DMSO. […] All reactions of h-CA I took place at 57 °C and reactions of b-CA II took place at 60 °C. […] Enzyme initial velocity was plotted with different substrate concentration using Prism6. Data were collected for each of the four inhibitors, and the change in initial velocities were analyzed with the “Enzyme-noncompetitive inhibition” equation in Prism6.

[3] = target: T1, h-CA I; test: SYPRO Orange DSF, isothermal analysis, carbonic anhydrase h-CA I
Experimental: All proteins (MBP, h-CA I and b-CA II) were used at a final concentration of 2 µM for this assay. SYPRO Orange (Invitrogen S6651) was used at a final concentration of 20X for MBP, and at 10X for the carbonic anhydrases. […] Carbonic anhydrase experiments were carried out in 100 mM NaCl, 20 mM TRIS, 1% DMSO, pH 6.1.
All DSF experiments were carried out with Eppendorf Realplex2 Mastercycler. Each sample was divided to three 50 µL replicates. Sample solutions were dispensed into 96-well optical reaction plate (Thermo Fisher Scientific 4306737) and the plate was sealed with optical PCR plate sheet (Thermo Fisher Scientific AB-1170). Fluorescence intensity was measured via the JOE emission filter (550 nm) and “PTS clear plate” was set as the background for the calibration. […] Melting curves were directly exported from the instrument, and then were analyzed with Prism 6 (GraphPad Software Inc.).
DSF data were analyzed in three steps. First, raw fluorescence data as a function of temperature were fit to a modified form of the thermodynamic equation, as follows:22 ΔG=ΔH(1−T/Tm)−ΔCp(Tm−T+Tln[T/Tm]) 23 KU=e^−ΔG/RT 24 Y(T)=[1/1+KU(mFT+bF)]+[KU/1+KU(mUT+bU)]
Here Equation 24 relates the observed fluorescence signal, Y, as a function of temperature (T). The two terms in this equation correspond to contributions from folded and unfolded protein, respectively. […]

T1 sequence (P00915 whole entry): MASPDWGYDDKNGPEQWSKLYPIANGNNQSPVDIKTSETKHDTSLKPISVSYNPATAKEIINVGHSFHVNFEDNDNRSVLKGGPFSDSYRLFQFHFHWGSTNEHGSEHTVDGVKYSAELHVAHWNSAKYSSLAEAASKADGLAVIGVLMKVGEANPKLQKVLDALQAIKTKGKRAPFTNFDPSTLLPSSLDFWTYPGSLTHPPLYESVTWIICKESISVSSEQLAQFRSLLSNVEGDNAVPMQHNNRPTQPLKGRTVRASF

Ki [2] [µM]	EC50 [3] [µM]	Kd ([3]; Kd (µM), from DSF, h-CA I, 57 °C, 2 µM protein, no denaturant) [µM]	Structure (SMILES)	Kd [1] [µM]
–	–	–	OC[C@H]1O[C@H](O[C@H]2[C@H](O)[C@@H](O)C(O)O[C@@H]2CO)[C@H](O)[C@@H](O)[C@@H]1O (mixture of isomers) [maltose]	0.5 to 2
< 1	1.4	< 0.5	NS(=O)(=O)C(F)(F)F [TFMSA, trifluoromethanesulfonamide]	–
